Experiments:
Assay type in all cases: in vivo
Phytophthora infestans = assay: whole plant or invertebrate; details: tomato late blight
Plasmopara viticola = assay: Test B: grape downy mildew, spray 24 h after inoculation (disease rating, 100 = 100% disease control)
Procedure, shortened: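 This is a curative spray test, applied 24 h after inoculation. Compounds in 50/50 acetone–water with 250 ppm Trem 014 surfactant were sprayed to run-off on P. viticola-infected seedlings, with 200 ppm equating to 500 g/ha. Plants were kept 5 days in a 20 °C growth chamber, then 24 h humid, and scored 0–100 for disease control relative to controls.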

[1] = tested on: Pseudoperonospora cubensis; assay: Test A: cucumber downy mildew, spray the day before inoculation (disease rating, 100 = 100% disease control)
Excerpt: The test compounds were first dissolved in acetone in an amount equal to 3% of the final volume and then suspended at the desired concentration (in ppm) in acetone and purified water (50/50 mix by volume) containing 250 ppm of the surfactant Trem® 014 (polyhydric alcohol esters). The resulting test suspensions were then used in tests A-E. Spraying a 200 ppm test suspension to the point of run-off on the test plants was the equivalent of a rate of 500 g/ha.
The test suspension was sprayed to the point of run-off on cucumber seedlings. The following day the seedlings were inoculated with a spore suspension of Pseudoperonospora cubensis (the causal agent of cucumber downy mildew) and incubated in a saturated atmosphere at 20° C. for 24 h, and then moved to a growth chamber at 20° C. for 6 days, after which disease ratings were made.
Results for Tests A-F are given in Table A. In the table, a rating of 100 indicates 100% disease control and a rating of 0 indicates no disease control (relative to the controls). A dash (-) indicates no test results.

[2] = tested on: Erysiphe graminis f. sp. tritici; assay: Test E: wheat powdery mildew, spray the day before inoculation (disease rating, 100 = 100% disease control)
Procedure, shortened: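 Protective test: spores of E. graminis f. sp. tritici dusted on wheat seedlings one day after run-off spraying of test suspension (acetone/water with 250 ppm surfactant; 200 ppm = 500 g/ha). Ratings after 7 days in growth chamber at 20° C, 100 = full control, 0 = none, relative to controls.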

[3] = spray the day before inoculation, compounds without asterisk (not 40 or 10 ppm)
[4] = spray 24 h after inoculation, compounds without asterisk (not 40 or 10 ppm)
[5] = sprayed the day before inoculation, unmarked compounds (no asterisk, not 40 or 10 ppm)
[6] = sprayed 24 h after inoculation, unmarked compounds (no asterisk, not 40 or 10 ppm)
[7] = sprayed the day before inoculation, 7 days at 20° C., unmarked compounds (no asterisk, not 40 or 10 ppm)

Compound | Test C disease rating (100 = 100% disease control, 0 = no disease control) (Phytophthora infestans; [3]) [%] | Test B disease rating (100 = 100% disease control, 0 = no disease control) (Plasmopara viticola; [4]) [%] | Test A disease rating (100 = 100% disease control, 0 = no disease control) [1, 3] [%] | Test E disease rating (100 = 100% disease control, 0 = no disease control) [2, 3] [%] | Test C disease rating (100 = 100% disease control, 0 = no disease control) (Phytophthora infestans; [5]) | Test B disease rating (100 = 100% disease control, 0 = no disease control) (Plasmopara viticola; [6]) | Test A disease rating (100 = 100% disease control, 0 = no disease control) [1, 5] | Test E disease rating (100 = 100% disease control, 0 = no disease control) [2, 7]
2-[1-[(2,5-dimethylphenyl)acetyl]-4-piperidinyl]-N-methyl-N-[(1R)-1-phenylpropyl]-4-thiazolecarboxamide [Compound 58] | 56 | 20 | 0 | 0 |  |  |  | 
2-[1-[(3,5-dichloro-1H-pyrazol-1-yl)acetyl]-4-piperidinyl]-N-methyl-N-[(1R)-1,2,3,4-tetrahydro-1-naphthalenyl]-4-thiazolecarboxamide [Compound 238] | 0 | 6 | 0 | 0 |  |  |  | 
2-[1-[[3,5-bis(trifluoromethyl)-1H-pyrazol-1-yl]acetyl]-4-piperidinyl]-N-methyl-N-[(1R)-1,2,3,4-tetrahydro-1-naphthalenyl]-4-thiazolecarboxamide [Compound 210] | 0 | 6 | 0 | 0 |  |  |  | 
2-[1-[[5-chloro-3-(trifluoromethyl)-1H-pyrazol-1-yl]acetyl]-4-piperidinyl]-N-methyl-N-[(1R)-1,2,3,4-tetrahydro-1-naphthalenyl]-4-thiazolecarboxamide [Compound 249] | 0 | 0 | 0 | 0 |  |  |  | 
2-[4-[(2,5-dimethylphenyl)acetyl]-1-piperazinyl]-N-methyl-N-[(1R)-1-phenylethyl]-5-thiazolecarboxamide [Compound 74] | 0 | 14 | 0 | 21 |  |  |  | 
C[C@H](c1ccccc1)N(C)C(=O)c1csc(C2CCN(C(=O)Cc3ccc(Cl)cc3Cl)CC2)n1 [compound 6] | 0 | 28 | 0 | 41 |  |  |  | 
C[C@H](c1ccccc1)N(C)C(=O)c1csc(C2CCN(C(=O)Cc3cccc(S(C)(=O)=O)c3)CC2)n1 [compound 31] | 0 | 0 | 0 | 0 |  |  |  | 
C[C@H](c1ccccc1)N(C)C(=O)c1csc(C2CCN(C(=O)Cc3ccc(F)c(C(F)(F)F)c3)CC2)n1 [compound 34] | 31 | 48 | 85 | 0 |  |  |  | 
C[C@H](c1ccccc1)N(C)C(=O)c1csc(C2CCN(C(=O)Cc3cc(F)cc(F)c3)CC2)n1 [compound 37] | 80 | 23 | 85 | 87 |  |  |  | 
C[C@H](c1ccccc1)N(C)C(=O)c1csc(C2CCN(C(=O)Cc3cc(F)cc(C(F)(F)F)c3)CC2)n1 [compound 40] | 60 | 76 | 98 | 0 |  |  |  | 
C[C@H](c1ccccc1)N(C)C(=O)c1csc(C2CCN(C(=O)Cc3cccc(C(F)(F)F)c3F)CC2)n1 [compound 42] | 100 | 31 | 99 | 21 |  |  |  | 
Cc1cc(C)cc(CC(=O)N2CCC(c3nc(C(=O)N(C)[C@H](C)c4ccccc4)cs3)CC2)c1 [compound 43] | 100 | 83 | 100 | 21 |  |  |  | 
C[C@H](c1ccccc1)N(C)C(=O)c1csc(C2CCN(C(=O)Cc3ccccc3OC(F)(F)F)CC2)n1 [compound 45] | 98 | 70 | 95 | 0 |  |  |  | 
C[C@H](c1ccccc1)N(C)C(=O)c1csc(C2CCN(C(=O)Cc3cccc(OC(F)(F)F)c3)CC2)n1 [compound 49] | 67 | 83 | 97 | 85 |  |  |  | 
C[C@H](c1ccccc1)N(C)C(=O)c1csc(C2CCN(C(=O)Nc3cccc(C(F)(F)F)c3)CC2)n1 [compound 155] | 31 | 41 | 100 | 0 |  |  |  | 
CN(Cc1ccccc1)C(=O)c1csc(C2CCN(C(=O)Cc3ccccc3Cl)CC2)n1 [compound 161] | 15 | 14 | 0 | 42 |  |  |  | 
C[C@@H](NC(=O)c1csc(C2CCN(C(=O)Cc3ccccc3Cl)CC2)n1)c1ccccc1 [compound 261] |  |  |  |  | 31 | 0 | 93 | 21
O=C(NCc1ccccc1)c1csc(C2CCN(C(=O)Cc3ccccc3Cl)CC2)n1 [compound 262] |  |  |  |  | 52 | 6 | 94 | 0
O=C(NC1Cc2ccccc2C1)c1csc(C2CCN(C(=O)Cc3ccccc3Cl)CC2)n1 [compound 265] |  |  |  |  | 0 | 34 | 0 | 47
O=C(Cc1ccccc1Cl)N1CCC(c2nc(C(=O)N3CCc4ccccc4C3)cs2)CC1 [compound 267] |  |  |  |  | 21 | 6 | 95 | 0
CC1CCN(C(=O)c2csc(C3CCN(C(=O)Cc4ccccc4Cl)CC3)n2)CC1 [compound 268] |  |  |  |  | 36 | 6 | 0 | 0
O=C(Cc1ccccc1Cl)N1CCC(c2nc(C(=O)N3CCCC3c3cccnc3)cs2)CC1 (stereo not drawn) [compound 269] |  |  |  |  | 0 | 40 | 0 | 0
C[C@@H](NC(=O)c1csc(C2CCN(C(=O)Cc3cccc(C(F)(F)F)c3)CC2)n1)c1ccc(Br)cc1 [compound 270] |  |  |  |  | 0 | 0 | 0 | 0
N-[(1R)-2,3-dihydro-1H-inden-1-yl]-N-methyl-2-[1-[[5-methyl-3-(trifluoromethyl)-1H-pyrazol-1-yl]acetyl]-4-piperidinyl]-4-thiazolecarboxamide [Compound 178] | 100 | 99 | 100 | 0 |  |  |  | 

— patent US8586611B2 (priority 2005, dated 2013)
